Measurements published in patent publication US20220227762A1, “AMIDE-SUBSTITUTED IMIDAZO COMPOUNDS AS SELECTIVE INHIBITORS OF INDOLEAMINE 2,3-DIOXYGENASES” (BEIGENE, LTD., priority 2019, published 2022).
Like-named read-outs stand apart in the source and are kept apart here.

Legend:
[1] = test system: plasma protein; experiment: Plasma Protein Binding Assay (equilibrium dialysis); format: in vitro ADME; settings: 50% plasma, Human plasma, 37° C., read-out: Plasma Protein Binding assay (fu %) Human
Protocol: Plasma Protein Binding Assay:
To evaluate the plasma protein binding extent, the bound (fb) and unbound (fu) fractions of test compound will be determined in vitro by equilibrium dialysis approach, using a 96-well dialysis device (HT Dialysis, Gales Ferry, Conn., USA). The equilibrium dialysis will be conducted in duplicate. A hundred and fifty μL of 50% plasma spiked with the test compound (final concentration of 5 μM) will be added into the donor side and 150 μL of Phosphate Buffer (PB) (0.002% Tween-80) into the corresponding receiving side. The device will be then sealed with adhesive film and shook at 80 rpm in the water bath at 37° C. for 6 h. At the end of incubation, 10 μL plasma sample will be transferred from the donor side into a 1.5 mL microcentrifuge tube, added with 90 μL PB (0.002% Tween-80), vortexed well and proteins precipitated by acetonitrile containing internal standard (IS). Ninety μL of PB (0.002% Tween-80) sample will be transferred from the receiver side into a 1.5 mL microcentrifuge tube, added with 10 μL 50% blank plasma, vortexed well and proteins precipitated by acetonitrile containing IS.
For recovery check, […] of the donor side loading samples will be aliquoted into a 1.5 mL microcentrifuge tube (in duplicate), added with 90 μL PB (0.002% Tween-80), vortexed well and proteins precipitated by acetonitrile containing IS.
For plasma stability check, 10 μL of the donor side loading samples will be aliquoted into a 1.5 mL microcentrifuge tube (in duplicate), incubated in the water bath at 37° C. for 6 h, added with 90 μL PB (0.002% Tween-80) solution at the end of the incubation, vortexed well and proteins precipitated by acetonitrile containing IS.
Appropriate LC-MS/MS methods will be developed for the analysis of the test or control compounds in the incubates.
The unbound fraction (fu) of the test compound and positive control compounds in 50% plasma will be calculated using the following equations.
Where CR is the area ratio of the test compounds to the IS in the receiving side, CD is the area ratio of the test compound to the IS in the corresponding donor side and D is the dilution factor of plasma.

[2] = target: T1, IDO1 (Homo sapiens, UniProt P14902); experiment: HeLa Cell-Based IDO1 Kyn (Kynurenine) Production Assay
T1 construct: endogenous in cells; host or cells: HeLa cells (American Type Culture Collection), induced with human recombinant IFN-γ
Protocol: HeLa Cell-Based IDO1 Kyn (Kynurenine) Production Assay:
The inhibitory activity of IDO1 inhibitors is determined by using a colorimetric reaction to measure Kyn generated from L-Trp (L-Tryptophon) oxidation by cellular IDO1 in HeLa cells after induction of IDO1 expression by IFN-γ. Hela cells were obtained from the American Type Culture Collection and recovered in 10% FBS-containing phenol red-free DMEM medium. Cells were plated onto a 96-well plate (100 μl/well) at 8000 cells per well and kept at 37° C. in a humidified incubator supplied with 5% CO2. 4 hours later, Human recombinant IFN-γ (8901SC, CST) was added to cells (final concentration 100 ng/mL) to stimulate endogenous IDO1. Compounds at different concentrations diluted in dimethylsulfoxide (DMSO) were added simultaneously with IFN-γ and 0.4 mM L-Trp. Cells were kept at 37° C. in a humidified incubator supplied with 5% CO2. After 48 hours of incubation, 100 μl supernatant from each well was removed to a new plate. The protein in the medium was precipitated with the addition of 8 μl 6N trichloroacetic acid. The plate was incubated at 60° C. for 30 minutes and then centrifugation at 2500 rpm for 10 minutes to remove sediments. 80 μl supernatants were carefully removed to a new clean plate and added with an equal volume of 2% 4-(Dimethylamino)benzaldehyde (D2004, Sigma) dissolved in glacial acetic acid. The absorbance at 480 nm wavelength derived from Kyn was measured using a PHERAstar FS plate reader (BMG LABTECH). The IC50 for each compound was derived from fitting the dose-response data to the four-parameter logistic model by using XLfit software (IDBS).

[3] = HeLa cells, IDO1 induced by IFN-γ, 0.4 mM L-Trp, 48 hours incubation, Kyn absorbance at 480 nm, read-out: Cell-Based EC50 (nM) Hela IDO1

T1 sequence (P14902 whole entry): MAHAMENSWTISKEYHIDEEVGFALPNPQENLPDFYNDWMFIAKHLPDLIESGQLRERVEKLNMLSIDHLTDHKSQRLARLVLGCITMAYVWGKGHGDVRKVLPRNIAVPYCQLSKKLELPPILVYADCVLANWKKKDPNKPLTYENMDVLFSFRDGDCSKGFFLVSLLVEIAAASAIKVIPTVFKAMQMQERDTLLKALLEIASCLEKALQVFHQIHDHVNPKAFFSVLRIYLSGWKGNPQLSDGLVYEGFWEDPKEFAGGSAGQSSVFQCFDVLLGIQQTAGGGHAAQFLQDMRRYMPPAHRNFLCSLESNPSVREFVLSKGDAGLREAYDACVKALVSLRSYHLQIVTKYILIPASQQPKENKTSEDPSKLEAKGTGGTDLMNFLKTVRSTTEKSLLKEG

| fraction unbound at 6 h, 5 μM [1] | EC50 [2, 3] | SMILES | EC50 [2] |
| --- | --- | --- | --- |
| 0.00067 | 0.55 nM | COC(=O)c1ccc2[nH]c([C@H](C)[C@H]3CC[C@@H](c4ccnc5ccc(F)cc54)CC3)nc2c1 [Example 28b, methyl 2-((R)-1-((1s,4S)-4-(6-fluoroquinolin-4-yl)cyclohexyl)ethyl)-1H-benzo[d]imidazole-5-carboxylate, reference compound] | – |
| 0.0002 | 0.85 nM | C[C@@H](c1nc2c(F)c(F)c(F)cc2[nH]1)[C@H]1CC[C@@H](c2ccnc3ccc(F)cc32)CC1 [Example 29, 6-fluoro-4-((1S,4s)-4-((R)-1-(4,5,6-trifluoro-1H-benzo[d]imidazol-2-yl)ethyl)cyclohexyl)quinoline, reference compound] | – |
| 0.0053 | 3.83 nM | CNC(=O)c1cc2[nH]c([C@H](C)[C@H]3CC[C@@H](c4ccnc5ccc(F)cc54)CC3)nc2cn1 [Example 23b, 2-((R)-1-((1s,4S)-4-(6-fluoroquinolin-4-yl)cyclohexyl)ethyl)-N-methyl-1H-imidazo[4,5-c]pyridine-6-carboxamide] | – |
| 0.0072 | 223 nM | CNC(=O)c1cc2[nH]c([C@@H](C)[C@H]3CC[C@@H](c4ccnc5ccc(F)cc54)CC3)nc2cn1 [Example 23a, 2-((S)-1-((1s,4R)-4-(6-fluoroquinolin-4-yl)cyclohexyl)ethyl)-N-methyl-1H-imidazo[4,5-c]pyridine-6-carboxamide] | – |
| – | 0.77 nM | CCNC(=O)c1cc2nc([C@H](C)[C@H]3CC[C@@H](c4ccnc5ccc(F)cc54)CC3)[nH]c2cn1 [Example 26, N-ethyl-2-((R)-1-((1s,4S)-4-(6-fluoroquinolin-4-yl)cyclohexyl)ethyl)-3H-imidazo[4,5-c]pyridine-6-carboxamide] | – |

More lines, now with the values behind:

| SMILES | fraction unbound at 6 h, 5 μM [1] | EC50 [2, 3] | EC50 [2] |
| --- | --- | --- | --- |
| C[C@@H](c1nc2cc(C(=O)NC3CC3)ncc2[nH]1)[C@H]1CC[C@@H](c2ccnc3ccc(F)cc32)CC1 [Example 22b, N-cyclopropyl-2-((R)-1-((1s,4s)-4-(6-fluoroquinolin-4-yl)cyclohexyl)ethyl)-3H-imidazo[4,5-c]pyridine-6-carboxamide] | 0.0047 | 0.96 nM | – |
| C[C@@H](c1nc2cc(C(=O)NC3CCC3)ccc2[nH]1)[C@H]1CC[C@@H](c2ccnc3ccc(F)cc32)CC1 [Example 4, N-cyclobutyl-2-((R)-1-((1s,4S)-4-(6-fluoroquinolin-4-yl)cyclohexyl)ethyl)-1H-benzo[d]imidazole-6-carboxamide] | 0.002 | 26.9 nM | – |
| C[C@H](c1nc2cnc(C(=O)NC3CC3)cc2[nH]1)[C@H]1CC[C@@H](c2ccnc3ccc(F)cc32)CC1 [Example 22a, N-cyclopropyl-2-((S)-1-((1s,4R)-4-(6-fluoroquinolin-4-yl)cyclohexyl)ethyl)-1H-imidazo[4,5-c]pyridine-6-carboxamide] | 0.0056 | 267 nM | – |
| C[C@@H](c1nc2cc(F)c(F)cc2[nH]1)[C@H]1CC[C@@H](c2ccnc3ccc(F)cc32)CC1 [Example 27b, 4-((1S,4s)-4-((R)-1-(5,6-difluoro-1H-benzo[d]imidazol-2-yl)ethyl)cyclohexyl)-6-fluoroquinoline, reference compound] | 0.00034 | – | 0.42 nM |
